For 4 compounds, MIC results are on record in DBAASP.

Some test systems named below: Escherichia coli C25; Bacillus cereus; Pseudomonas aeruginosa; Shigella flexneri; Vibrio alginolyticus; Aeromonas hydrophila; Staphylococcus aureus; Cryptococcus neoformans; Bacillus subtilis; Escherichia coli; Pseudomonas fluorescens; Candida albicans; Vibrio parahaemolyticus.
Holding throughout (assay): ≥ marks a high value that may be exact or a test limit, other limits are often not marked, values filed in µg/mL are converted to µM
Test [1] deals with Staphylococcus aureus ATCC 25923.
Test [2] relates to Staphylococcus epidermidis.
Test [3] has as its system Corynebacterium glutamicum.
Test [4] deals with Haemophilus influenzae MTCC 621.
Test [5] relates to Proteus vulgaris MTCC 1771.
Test [6] relates to Enterococcus faecalis MTCC 439.
Test [7] deals with Acinetobacter baumannii MTCC 9829.
In test [8] the test system is Bordetella bronchiseptica MTCC 6837.
The subject of test [9] is Alkalihalobacillus alcalophilus MTCC 860.
Test [10] deals with Escherichia coli K12 MG1655.
Test [11] concerns Citrobacter koseri MTCC 1657.
Test [12] concerns Stenotrophomonas maltophilia MTCC 1890.
The test system of test [13] is Citrobacter freundii MTCC 1658.
Test [14] has as its system Shigella flexneri MTCC 1457.
For test [15], the system named is Pseudomonas aeruginosa MTCC 3542.
The test system of test [16] is Vibrio cholerae MTCC 3904.
Test [17] deals with Staphylococcus haemolyticus MTCC 3383.
Test [18] deals with Proteus mirabilis MTCC 3158.
For test [19], the system named is Alcaligenes faecalis MTCC 1937.
Test [20] concerns Pluralibacter gergoviae MTCC 3826.
Test [21] deals with Shigella boydii MTCC 11947.
Test [22] deals with Klebsiella aerogenes MTCC 111.
In test [23] the test system is Staphylococcus aureus MTCC 3160.
Test [24] has as its system Salmonella enterica subsp. enterica serovar Typhimurium ATCC 14028.
For test [25], the system named is Corynebacterium glutamicum MTCC 2679.
Test [26] concerns Salmonella enterica MTCC 9844.
Test [27] has as its system Klebsiella pneumoniae MTCC 7407.
For test [28], the system named is Klebsiella oxytoca MTCC 2275.
In test [29] the test system is Pseudomonas aeruginosa CICC 11421.
Test [30] relates to Pseudomonas aeruginosa CICC 11431.
Test [31] concerns Pseudomonas aeruginosa CICC 10419.
Test [32] relates to Pseudomonas aeruginosa CICC 11411.
Test [33] deals with Pseudomonas aeruginosa CICC 21625.
Test [34] concerns Pseudomonas aeruginosa ATCC 27853.
Test [35] concerns Pseudomonas aeruginosa CICC 21630.
The test system of test [36] is Staphylococcus aureus ATCC 29213.
The subject of test [37] is Escherichia coli ATCC 25922.
For test [38], the system named is Pseudomonas aeruginosa 25349.
Test [39] deals with Pseudomonas aeruginosa 21328.

Each structure is given as a SMILES string. Converted amounts (≈) assume the structure as drawn.

Regarding `CC[C@H](C)[C@H](NC(=O)CNC(=O)[C@H](CCCN=C(N)N)NC(=O)[C@@H](NC(=O)[C@@H](NC(=O)[C@H](CCCN=C(N)N)NC(=O)[C@@H](NC(=O)[C@@H](NC(=O)[C@@H](N)CCCCN)[C@@H](C)CC)[C@@H](C)CC)C(C)C)[C@@H](C)CC)C(=O)N[C@H](C(=O)N[C@@H](CCCN=C(N)N)C(=O)N[C@@H](CCCN=C(N)N)C(=O)N[C@@H](CCCN=C(N)N)C(N)=O)[C@@H](C)CC` [KIIRVIRGIIRRR], the MIC (in the test on Escherichia coli C25; in test [1]) was 9.5 µM (≈ 15.7 µg/mL) each time.

On to `CC(C)C[C@H](NC(=O)[C@H](CO)NC(=O)[C@H](CC(C)C)NC(=O)[C@H](Cc1cnc[nH]1)NC(=O)[C@H](CO)NC(=O)[C@@H](N)CCC(N)=O)C(=O)N[C@H]1CSSC[C@@H](C(=O)N[C@@H](CCCCN)C(=O)N[C@@H](Cc2ccccc2)C(=O)O)NC(=O)[C@@H]2CSSC[C@@H]3NC(=O)[C@H](CSSC[C@H](NC(=O)[C@H](CC(N)=O)NC3=O)C(=O)N[C@H]3CSSC[C@H](NC(=O)CNC(=O)[C@H](CCCCN)NC(=O)[C@H](Cc4ccc(O)cc4)NC(=O)[C@H](CCCN=C(N)N)NC(=O)[C@H](CC(N)=O)NC3=O)C(=O)NCC(=O)N[C@@H](Cc3ccccc3)C(=O)N2)NC(=O)[C@H](Cc2c[nH]c3ccccc23)NC(=O)[C@H](CCCN=C(N)N)NC1=O` [QSHLSLCRWCCNCCNRYKGCGFCCKF], for which the MIC is at least 50 µM against Bacillus cereus; 35.4 µM (≈ 108 µg/mL) against Pseudomonas aeruginosa; at least 50 µM in the test on Shigella flexneri; at least 50 µM with Vibrio alginolyticus; at least 50 µM with Aeromonas hydrophila; at least 50 µM in [2]. For the same compound, the MIC in the test on Staphylococcus aureus was over 50 µM; against Cryptococcus neoformans it was at least 50 µM; in the test on Bacillus subtilis it was 8.84 µM (≈ 27 µg/mL); against Escherichia coli, over 50 µM; in the test with Pseudomonas fluorescens, 17.7 µM (≈ 54 µg/mL); with Candida albicans, over 50 µM. Further, the MIC in test [3] is 8.84 µM (≈ 27 µg/mL); in the test on Vibrio parahaemolyticus, at least 50 µM.

For the compound `CC[C@H](C)[C@H](NC(=O)[C@@H](NC(=O)[C@H](CCC(N)=O)NC(=O)[C@H](CCCN=C(N)N)NC(=O)[C@H](C)NC(=O)[C@H](C)NC(=O)[C@H](C)NC(=O)[C@H](Cc1c[nH]c2ccccc12)NC(=O)[C@@H](N)CCC(=O)O)C(C)C)C(=O)N[C@H](C(=O)N[C@@H](Cc1cnc[nH]1)C(=O)N[C@@H](C)C(=O)N[C@H](C(=O)N[C@@H](CCCN=C(N)N)C(=O)N[C@@H](CCCCN)C(=O)N[C@@H](Cc1ccc(O)cc1)C(=O)O)[C@@H](C)O)[C@@H](C)CC` [EWAAARQVIIHATRKY], the MIC in test [4], in test [5], in test [6], in test [7], in test [8] and in test [9] was at least 66.9 µM in each case. The MIC in [10], in test [11], in test [12], in test [13], in test [14] and in [15] was at least 66.9 µM throughout. In addition, the MIC in test [16], in test [17], in test [18], in [19], in [20] and in test [21] was at least 66.9 µM throughout. Further, the MIC in test [22] was at least 66.9 µM; in [23], at least 66.9 µM; in test [24] it was over 66.9 µM; in test [25], at least 33.5 µM; in [26], at least 66.9 µM; in [27], at least 66.9 µM. Besides, in test [28], the MIC was at least 66.9 µM.

As to `CC(C)C[C@H](NC(=O)[C@H](CCCN=C(N)N)NC(=O)[C@H](CCCN=C(N)N)NC(=O)[C@H](CC(C)C)NC(=O)[C@H](Cc1c[nH]c2ccccc12)NC(=O)[C@H](CCCN=C(N)N)NC(=O)[C@H](CCCN=C(N)N)NC(=O)[C@H](CCCN=C(N)N)NC(=O)[C@H](CC(C)C)NC(=O)[C@H](CCCN=C(N)N)NC(=O)[C@H](CCCN=C(N)N)NC(=O)[C@@H](N)CC(C)C)C(=O)N[C@@H](CCCN=C(N)N)C(=O)N[C@@H](CCCN=C(N)N)C(=O)N[C@@H](CCCN=C(N)N)C(N)=O` [LRRLRRRWLRRLRRR], the MIC in test [29] was at least 115 µM; in test [30], 28.8 µM (≈ 64 µg/mL); in test [31] it was at least 115 µM; in test [32] it was at least 57.7 µM; in test [33] it was 28.8 µM (≈ 64 µg/mL); in test [34], 14.4 µM (≈ 32 µg/mL). In addition, the MIC in [35] is 14.4 µM (≈ 32 µg/mL); in [36], 28.8 µM (≈ 64 µg/mL); in [37], over 57.7 µM; in test [38], 20.4 µM (≈ 45.2 µg/mL); in [39] it was at least 57.7 µM.
